One molecule from ChEMBL document CHEMBL5321275, “Discovery, Optimization, and Evaluation of Novel N-(Benzimidazol-5-yl)-1,3,4-thiadiazol-2-amine Analogues as Potent STAT3 Inhibitors for Cancer Treatment” (J Med Chem, 2023) can be followed below.

Data set [1] relates to DU-145. Kind of data set: Antiproliferative activity against human DU-145 cells assessed as inhibition of cell growth measured after 96 hrs by MTT assay. To be noted: DU-145, 96 h. In kind it is functional, cell-based. In general terms: Tetrazolium dyes change colour on reduction, which living cells bring about.
Data set [2] has as its system MDA-MB-231. Kind of data set: Antiproliferative activity against human MDA-MB-231 cells assessed as inhibition of cell growth at 10 uM measured after 96 hrs by MTT assay relative to control. In kind it is functional.
A further data set deals with HepG2. Kind of data set: Antiproliferative activity against human HepG2 cells assessed as inhibition of cell growth measured after 96 hrs by MTT assay. In kind it is functional, cell-based. As to conditions: HepG2, 96 h.
Data set [3] deals with T1, Signal transducer and activator of transcription 3 (Homo sapiens, UniProt P40763). Nature of the data set: Inhibition of 5-carboxyfluorescein-GY(PO3H2)LPQTV-NH2 peptide probe binding to human STAT3 SH2 domain preincubated for 30 mins followed by probe addition and measured after 1 hr by fluorescence polarization assay. (In fluorescence polarisation assays a small probe gives low polarisation when free and higher when bound to something large.)

The target of data set [4] is T1, Signal transducer and activator of transcription 3. Nature of the data set: Inhibition of STAT3 in human DU-145 cells assessed as downregulation of Bcl-2 expression at upto 10 uM measured after 24 hrs. In kind it is cell-based.
The test system of data set [5] is DU-145. Kind of data set: Induction of cell cycle arrest in human DU-145 cells assessed as accumulation of cells at G0/G1 phase measured after 24 hrs by PI staining based flow cytometry analysis. To be noted: dose <= 10.0 µM. In kind it is functional. On the technique in general: In flow cytometry, cells or beads pass a laser one at a time.
The subject of data set [6] is DU-145. Nature of the data set: Induction of apoptosis in human DU-145 cells assessed as early apoptotic cells at 10 uM measured after 48 hrs by annexin V-FITC and PI staining based flow cytometry analysis (reference value: 2.5%). In kind it is functional.
The test system of data set [7] is MDA-MB-231. Kind of data set: Induction of apoptosis in human MDA-MB-231 cells assessed as early apoptotic cells at 5 uM measured after 48 hrs by annexin V-FITC and PI staining based flow cytometry analysis (reference value: 6.7%). In kind it is functional.
Data set [8] has as its system MDA-MB-231. Nature of the data set: Induction of apoptosis in human MDA-MB-231 cells measured after 48 hrs by annexin V-FITC and PI staining based flow cytometry analysis. As to conditions: dose <= 10.0 µM. In kind it is functional, cell-based.
The subject of data set [9] is DU-145. Nature of the data set: Induction of apoptosis in human DU-145 cells assessed as induction of PARP cleavage at upto 10 uM measured after 48 hrs by […]. In kind it is functional, cell-based.
Data set [10] can be described thus: Toxicity in Balb/c mouse assessed as drug tolerance at 50 mg/kg, ip administered once daily for 16 days. As to conditions: in vivo, 384 h, time 16 day. In kind it is organism-based.
Data set [11] is described as follows: AUC (0 to infinity) in ICR mouse at 50 mg/kg, po measured upto 96 hrs by HPLC-MS/MS analysis. In kind it is ADME, organism-based. More on the design: time < 96 hrs, dose 50 mg/kg, route po. To be noted: in vivo.
Data set [12] can be described thus: MRT (0 to infinity) in ICR mouse at 50 mg/kg, po measured upto 96 hrs by HPLC-MS/MS analysis. In kind it is ADME, organism-based. As to conditions: in vivo.
The nature of data set [13]: MRT (0 to t) in ICR mouse at 5 mg/kg, iv measured upto 96 hrs by HPLC-MS/MS analysis. In kind it is ADME, organism-based. As to conditions: in vivo.
Data set [14] is described as follows: Clearance in ICR mouse at 5 mg/kg, iv measured upto 96 hrs by HPLC-MS/MS analysis. In kind it is ADME, organism-based. As to conditions: in vivo.

Structures are written as SMILES. Calls of active or inactive are those of the source. No cut-off for these calls is given here.

What is called IC50 is the midpoint of a concentration-inhibition curve. The inhibition is the percentage by which the read-out fell short of the control. The term AUC(0-inf) denotes total exposure, with the tail of the curve extrapolated. Read a low AUC(0-inf) as low exposure. For orientation: MRT inf means a mean duration of stay, worked out from the concentration-time curve. By MRT last is commonly meant a mean duration of stay, worked out from the concentration-time curve. As a reminder, the clearance is the volume of plasma or blood freed of the substance per unit of time.

T1 sequence (P40763 whole entry, the tested form may be a part): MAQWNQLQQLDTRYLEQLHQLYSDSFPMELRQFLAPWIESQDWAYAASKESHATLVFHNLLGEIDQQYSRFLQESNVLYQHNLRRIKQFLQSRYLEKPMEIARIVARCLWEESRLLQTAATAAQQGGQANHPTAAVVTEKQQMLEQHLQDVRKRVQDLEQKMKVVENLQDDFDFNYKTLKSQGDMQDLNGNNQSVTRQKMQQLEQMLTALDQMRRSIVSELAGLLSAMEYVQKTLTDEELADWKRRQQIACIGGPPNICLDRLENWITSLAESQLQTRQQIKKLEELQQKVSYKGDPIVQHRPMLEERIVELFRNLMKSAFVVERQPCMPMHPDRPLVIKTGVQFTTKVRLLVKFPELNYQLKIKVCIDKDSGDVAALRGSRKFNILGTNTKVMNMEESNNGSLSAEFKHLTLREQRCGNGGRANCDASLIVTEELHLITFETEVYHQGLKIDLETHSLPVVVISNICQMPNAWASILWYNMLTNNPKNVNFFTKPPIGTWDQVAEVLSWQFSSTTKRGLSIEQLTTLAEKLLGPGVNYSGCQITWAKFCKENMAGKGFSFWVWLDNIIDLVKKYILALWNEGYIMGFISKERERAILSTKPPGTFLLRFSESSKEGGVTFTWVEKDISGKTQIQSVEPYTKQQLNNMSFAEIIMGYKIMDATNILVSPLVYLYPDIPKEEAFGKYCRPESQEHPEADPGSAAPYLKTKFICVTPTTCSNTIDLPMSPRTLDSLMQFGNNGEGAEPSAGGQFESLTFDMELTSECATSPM

`CN1CCN(c2cc3c(cc2Nc2nnc(-c4ccc(C(F)(F)F)cc4)s2)nc(-c2ccc(F)cc2)n3C2CC2)CC1`: the IC50 came to 2970 nM in the data set with DU-145 [1], 1450 nM with HepG2 and 16000 nM in data set [3]. In addition, the inhibition at 10 µM in the data set with MDA-MB-231 [2] came out at 90.1%. For the same molecule, the inhibition result in data set [4] is “Active”. The Activity result with DU-145 [5] is “Dose-Dependent Effect”; with DU-145 [6] it was 34%; with MDA-MB-231 [7], 12.1%; with MDA-MB-231 [8] it was “Dose-Dependent Effect”; in data set [10], “Non-Toxic”. Further, the result in the data set with DU-145 [9] was Active. In data set [11], this molecule returned an AUC(0-inf) of 17800 ng·h/mL. Besides, the MRT inf in data set [12] was 17.3 h. In data set [13], this molecule yielded a mean residence time MRT last at 96 h of 14.9 h. This molecule also gave a clearance in [14] of 24.2 mL/min/kg.
